The source of these data is US7932246B2, “Histone deacetylase inhibitors” (Chroma Therapeutics Ltd., priority 2005, dated 2011).

Usually IC50 stands for the point on the concentration scale where inhibition reaches its midpoint.

The structures appear in SMILES notation. Bounds are passed on as bounds.

For assay [1], the target named is histone deacetylase activity (HeLa nuclear extract). Briefly: HDAC fluorescent activity assay (Biomol, Fluor de Lys substrate). The format is biochemical. To be noted: IC50 range. Here is the method: The ability of compounds to inhibit histone deacetylase activities was measured using the commercially available HDAC fluorescent activity assay from Biomol. In brief, the Fluor de Lys™ substrate, a lysine with an epsilon-amino acetylation, is incubated with the source of histone deacetylase activity (HeLa nuclear extract) in the presence or absence of inhibitor. Deacetylation of the substrate sensitises the substrate to Fluor de Lys™ developer, which generates a fluorophore.
Data are expressed as a percentage of the control, measured in the absence of inhibitor, with background signal being subtracted from all samples, as follows:— % activity=[(S^i−B)/(S^o−B)]×100 where S^i is the signal in the presence of substrate, enzyme and inhibitor, S^o is the signal in the presence of substrate, enzyme and the vehicle in which the inhibitor is dissolved, and B is the background signal measured in the absence of enzyme.
Histone deacetylase activity from crude nuclear extract derived from HeLa cells was used for screening. The preparation, purchased from 4C (Seneffe, Belgium), was prepared from HeLa cells harvested whilst in exponential growth phase. The nuclear extract is prepared according to Dignam JD1983 Nucl. Acid. […] The final buffer composition was 20 mM Hepes, 100 mM KCl, 0.2 mM EDTA, 0.5 mM DTT, 0.2 mM PMSF and 20% (v/v) glycerol.

The test system of assay [2] is HeLa cells. Briefly: HeLa cell inhibition assay (SRB cell viability). Particulars: Homo sapiens, HeLa, 72 h, IC50 range. The format is cell-based. Here is the method:
HeLa cells growing in log phase were harvested and seeded at 1000 cells/well (200 μl final volume) into 96-well tissue culture plates. Following 24 h of cell growth cells were treated with compounds (final concentration of 20 μM). Plates were then re-incubated for a further 72 h before a sulphorhodamine B (SRB) cell viability assay was conducted according to Skehan 1990 J Natl Canc Inst 82, 1107-1112.
(§1) Data were expressed as a percentage inhibition of the control, measured in the absence of inhibitor, as follows:— % inhibition=100−[(S^i/S^o)×100] where S^i is the signal in the presence of inhibitor and S^o is the signal in the presence of DMSO.
IC50 values were determined by non-linear regression analysis, after fitting the results of eight data points to the equation for sigmoidal dose response with variable slope (% activity against log concentration of compound), using Graphpad Prism software.
(§2) IC50 results were allocated to one of 3 ranges as follows: […]

In assay [3] the test system is U937. Put plainly: U937 cell inhibition assay (WST-1 cell viability). The format is cell-based. To be noted: Homo sapiens, U-937; U937 cells, 72-96 h, WST-1 assay, IC50 range. Here is the method: (§3) Cancer cell lines (U937 and HUT) growing in log phase were harvested and seeded at 1000-2000 cells/well (100 μl final volume) into 96-well tissue culture plates. Following 24 h of growth cells were treated with compound. Plates were then re-incubated for a further 72-96 h before a WST-1 cell viability assay was conducted according to the suppliers (Roche Applied Science) instructions.
as §1
(§4) Dose response curves were generated from 8 concentrations (top final concentration 10 μM, with 3-fold dilutions), using 6 replicates.
(§5) IC50 values were determined by non-linear regression analysis, after fitting the results to the equation for sigmoidal dose response with variable slope (% activity against log concentration of compound), using Graphpad Prism software.
as §2
(In general: Formazan colour is commonly taken as a measure of viable cells.)

In assay [4] the test system is HUT. Put plainly: HUT cell inhibition assay (WST-1 cell viability). Format: cell-based. To be noted: HUT cells, 72-96 h, WST-1 assay, IC50 range. Here is the method:
as §3, §1, §4, §5, §2

For the molecule `O=C(NO)c1cnc(N2CC3C(C2)C3NC(c2ccccc2)C(F)(F)F)nc1` (stereo not shown) [Example 40, N-Hydroxy 2-{6-[(2,2,2-trifluoro-1-phenylethyl)amino]-3-azabicyclo[3.1.0]hex-3-yl}pyrimidine-5-carboxamide], the IC50 in assay [1] was under 100 nM; in assay [2], 331 to 3300 nM; in assay [3], 331 to 3300 nM; in assay [4], under 330 nM.

Consider `O=C(NO)c1cnc(N2CC3C(C2)C3NCc2ccc(F)cc2)nc1` (stereo not shown) [Example 41, N-Hydroxy 2-{6-[(4-fluorobenzyl)amino]-3-azabicyclo[3.1.0]hex-3-yl}pyrimidine-5-carboxamide], for which the IC50 is under 100 nM in assay [1], 331 to 3300 nM in assay [2], under 330 nM in assay [3] and under 330 nM in assay [4].

Regarding `O=C(NO)c1cnc(N2CC3C(C2)C3NCc2ccc(C(F)(F)F)cc2)nc1` (stereo not shown) [Example 42], the concentration for half-maximal inhibition (IC50) is under 100 nM in assay [1], 331 to 3300 nM in assay [2], 331 to 3300 nM in assay [3] and under 330 nM in assay [4].

With `O=C(NO)c1cnc(N2CC3C(C2)C3NCc2ccc3ccccc3n2)nc1` (stereo not shown) [Example 43, N-Hydroxy 2-{6-[(quinolin-2-ylmethyl)amino]-3-azabicyclo[3.1.0]hex-3-yl}pyrimidine-5-carboxamide], the IC50 in assay [1] is under 100 nM; in assay [2], under 330 nM; in assay [3] it was under 330 nM; in assay [4], under 330 nM.

As to `O=C(NO)c1cnc(N2CC3C(C2)C3NCc2ccc3cc(F)ccc3n2)nc1` (stereo not shown) [Example 44, N-Hydroxy 2-(6-{[(6-fluoroquinolin-2-yl)methyl]amino}-3-azabicyclo[3.1.0]hex-3-yl)pyrimidine-5-carboxamide], the IC50 is under 100 nM in assay [1], under 330 nM in assay [2], under 330 nM in assay [3] and under 330 nM in assay [4].

`CN(C1C2CN(c3ncc(C(=O)NO)cn3)CC21)S(=O)(=O)c1ccc2ccccc2c1` (stereo not shown) [Example 45, N-Hydroxy 2-{6-[methyl(naphthalene-2-sulfonyl)-amino]-3-aza-bicyclo[3.1.0]hex-3-yl}pyrimidine-5-carboxamide]: the IC50 in assay [1] is under 100 nM; in assay [2], 331 to 3300 nM; in assay [3], 331 to 3300 nM; in assay [4] it was under 330 nM.

Consider `O=C(NO)c1cnc(N2CC3C(C2)C3N(CCN2CCCC2)S(=O)(=O)c2ccc3ccccc3c2)nc1` (stereo not shown) [Example 46, N-Hydroxy 2-{6-[(naphthalene-2-sulfonyl)-(2-pyrrolidin-1-yl-ethyl)amino]-3-azabicyclo[3.1.0]hex-3-yl}pyrimidine-5-carboxamide], for which the IC50 in assay [1] is under 100 nM; in assay [2], under 330 nM; in assay [3], under 330 nM; in assay [4], under 330 nM.

As for `Cc1nccn1CCN(C1C2CN(c3ncc(C(=O)NO)cn3)CC21)S(=O)(=O)c1ccc2ccccc2c1` (stereo not shown) [Example 47, N-Hydroxy 2-{6-[[2-(2-methylimidazol-1-yl)ethyl](naphthalene-2-sulfonyl)amino]-3-azabicyclo[3.1.0]hex-3-yl}pyrimidine-5-carboxamide], the half-maximal inhibitory concentration (IC50) in assay [1] is under 100 nM; in assay [2], 331 to 3300 nM; in assay [3] it was 331 to 3300 nM; in assay [4], 331 to 3300 nM.

Consider `O=C(NO)c1cnc(N2CC3C(C2)C3N(CCN2CCCC2=O)S(=O)(=O)c2ccc3ccccc3c2)nc1` (stereo not shown) [Example 48, N-Hydroxy 2-(6-{(naphthalene-2-sulfonyl)-[2-(2-oxopyrrolidin-1-yl)ethyl]amino}-3-aza-bicyclo[3.1.0]hex-3-yl)pyrimidine-5-carboxamide], for which the IC50 in assay [1] is under 100 nM; in assay [2], 331 to 3300 nM; in assay [3] it was 331 to 3300 nM; in assay [4], 331 to 3300 nM.

Consider `O=C(NO)c1cnc(N2CC3C(C2)C3N(CCO)S(=O)(=O)c2ccc3ccccc3c2)nc1` (stereo not shown) [Example 49, N-Hydroxy 2-{6-[(2-hydroxyethyl)(naphthalene-2-sulfonyl)amino]-3-azabicyclo[3.1.0]hex-3-yl}pyrimidine-5-carboxamide], for which the IC50 is under 100 nM in assay [1], 331 to 3300 nM in assay [2], 331 to 3300 nM in assay [3] and 331 to 3300 nM in assay [4].

With `O=C(NO)c1cnc(N2CC3C(C2)C3N(CCN2CCOCC2)S(=O)(=O)c2ccc3ccccc3c2)nc1` (stereo not shown) [Example 51], the IC50 is under 100 nM in assay [1], under 330 nM in assay [2], under 330 nM in assay [3] and under 330 nM in assay [4].

As for `O=C(NO)c1cnc(N2CC3C(C2)C3N(CCN2CCCCC2)S(=O)(=O)c2ccc3ccccc3c2)nc1` (stereo not shown) [Example 53, N-Hydroxy 2-{6-[(naphthalene-2-sulfonyl)-(2-piperidin-1-ylethyl)amino]-3-azabicyclo[3.1.0]hex-3-yl}pyrimidine-5-carboxamide], the IC50 in assay [1] was under 100 nM; in assay [2] it was under 330 nM; in assay [3], under 330 nM; in assay [4] it was under 330 nM.

Take `O=C(NO)c1cnc(N2CC3C(C2)C3N(CCc2ccccn2)S(=O)(=O)c2ccc3ccccc3c2)nc1` (stereo not shown) [Example 54, N-Hydroxy 2-{6-[(naphthalene-2-sulfonyl)-(2-pyridin-2-ylethyl)-amino]-3-azabicyclo[3.1.0]hex-3-yl}pyrimidine-5-carboxamide]: the IC50 in assay [1] is under 100 nM; in assay [2] it was 331 to 3300 nM; in assay [3], 331 to 3300 nM; in assay [4], 331 to 3300 nM.

With `O=C(NO)c1cnc(N2CC3C(C2)C3N(CCN2CCCC2=O)S(=O)(=O)c2ccc(OC(F)(F)F)cc2)nc1` (stereo not shown) [Example 55, N-Hydroxy 2-{6-[[2-(2-oxopyrrolidin-1-yl)ethyl]-(4-trifluoromethoxybenzenesulfonyl)amino]-3-aza-bicyclo[3.1.0]hex-3-yl}pyrimidine-5-carboxamide], the IC50 is under 100 nM in assay [1], over 3300 nM in assay [2], 331 to 3300 nM in assay [3] and 331 to 3300 nM in assay [4].

Take `CCN(CC)CCN(Cc1ccc2ccccc2c1)C1C2CN(c3ncc(C(=O)NO)cn3)CC21` (stereo not shown) [Example 56, N-Hydroxy 2-{6-[(2-diethylaminoethyl)naphthalen-2-ylmethylamino]-3-azabicyclo[3.1.0]hex-3-yl}pyrimidine-5-carboxamide]: the half-maximal inhibitory concentration (IC50) is under 100 nM in assay [1], under 330 nM in assay [2], 331 to 3300 nM in assay [3] and under 330 nM in assay [4].

For the molecule `O=C(NO)c1cnc(N2CC3C(C2)C3N(Cc2ccc3ccccc3c2)Cc2ccc3ccccc3c2)nc1` (stereo not shown) [Example 57, N-Hydroxy 2-[6-(bisnaphthalen-2-ylmethylamino)-3-azabicyclo[3.1.0]hex-3-yl]pyrimidine-5-carboxamide], the half-maximal inhibitory concentration (IC50) in assay [1] was over 1000 nM; in assay [2], over 3300 nM; in assay [3], over 3300 nM; in assay [4], over 3300 nM.

As for `O=C(NO)c1cnc(N2CC3C(C2)C3N(Cc2cccnc2)Cc2ccc3ccccc3c2)nc1` (stereo not shown) [Example 58, N-Hydroxy 2-[6-(naphthalen-2-ylmethylpyridin-3-ylmethylamino)-3-aza-bicyclo[3.1.0]hex-3-yl]pyrimidine-5-carboxamide], the 50% inhibitory concentration (IC50) in assay [1] lay within 101 to 1000 nM; in assay [2] it was 331 to 3300 nM; in assay [3], 331 to 3300 nM; in assay [4] it was 331 to 3300 nM.

Consider `CCN(CC)CCC(=O)N(Cc1ccc2ccccc2c1)C1C2CN(c3ncc(C(=O)NO)cn3)CC21` (stereo not shown) [Example 59, N-Hydroxy 2-{6-[(3-diethylaminopropionyl)naphthalen-2-ylmethylamino]-3-azabicyclo[3.1.0]hex-3-yl}-pyrimidine-5-carboxamide], for which the IC50 was under 100 nM in assay [1], under 330 nM in assay [2], under 330 nM in assay [3] and under 330 nM in assay [4].

In the case of `CC(=O)N(Cc1ccc2ccccc2c1)C1C2CN(c3ncc(C(=O)NO)cn3)CC21` (stereo not shown) [Example 60, N-Hydroxy 2-[6-(acetylnaphthalen-2-ylmethylamino)-3-azabicyclo[3.1.0]hex-3-yl]pyrimidine-5-carboxamide], the 50% inhibitory concentration (IC50) in assay [1] was under 100 nM; in assay [2], under 330 nM; in assay [3] it was under 330 nM; in assay [4], under 330 nM.
